{
  "source": "patent US8334235B2",
  "about": "“Thiadiazolyloxyphenylamidines and use thereof as fungicides” (Bayer Cropscience AG, priority 2008, dated 2012)",
  "key": {"Sphaerotheca fuliginea": {"test_system": "Sphaerotheca fuliginea", "assay": "Sphaerotheca test (cucumber)/protective", "format": "in vivo", "details": "Podosphaera fuliginea, 168 h, 500 ppm active substance, protective, evaluation 7 days after inoculation, read-out: degree of effectiveness", "method": "• Solvent: 49 parts by weight of N,N-dimethylformamide • Emulsifier: 1 part by weight of alkylaryl polyglycol ether (polyoxyethylene (16) tristearylphenyl ether) To prepare a suitable active substance composition, 1 part by weight of active substance is mixed with the given amounts of solvents and emulsifier and the concentrate is diluted to the desired concentration using water. For the testing of protective effectiveness, young cucumber plants are sprayed with the active substance composition in the application rate given. One day after treatment, the plants are inoculated with a suspension of spores of Sphaerotheca fuliginea. The plants are then placed in a greenhouse at 70% relative humidity and a temperature of 23° C. Evaluation is carried out 7 days after the inoculation. In this connection, 0% means a degree of effectiveness corresponding to that of the control, while a degree of effectiveness of 100% means that no infestation is observed."}, "Puccinia triticina [1]": {"test_system": "Puccinia triticina", "assay": "Puccinia triticina test (wheat)/protective", "format": "in vivo", "details": "192 h, 500 ppm active substance, protective, evaluation 8 days after inoculation, read-out: degree of effectiveness", "method": "(§1) • Solvent: 50 parts by weight of N,N-dimethylacetamide • Emulsifier: 1 part by weight of alkylaryl polyglycol ether (polyoxyethylene (16) tristearylphenyl ether)\n(§2) To prepare a suitable active substance composition, 1 part by weight of active substance is mixed with the given amounts of solvent and emulsifier and the concentrate is diluted to the desired concentration using water.\nFor the testing of protective effectiveness, young plants are sprayed with the active substance composition in the application rate given. After the spray coating has been dried on, the plants are sprayed with a suspension of spores of Puccinia triticina. The plants remain in an incubation chamber at 20° C. and 100% relative humidity for 48 hours. The plants are placed in a greenhouse at a temperature of approximately 20° C. and a relative humidity of approximately 80%.\n(§3) Evaluation is carried out 8 days after the inoculation. In this connection, 0% means a degree of effectiveness corresponding to that of the control, while a degree of effectiveness of 100% means that no infestation is observed."}, "Puccinia triticina [2]": {"test_system": "Puccinia triticina", "assay": "Puccinia triticina test (wheat)/curative", "format": "in vivo", "details": "192 h, 500 ppm active substance, curative, evaluation 8 days after inoculation, read-out: degree of effectiveness", "method": "as §1, §2\nFor the testing of curative effectiveness, young plants are sprayed with a suspension of spores of Puccinia triticina. The plants remain in an incubation chamber at 20° C. and 100% relative humidity for 48 hours and are then sprayed with the active substance composition in the application rate given. The plants are placed in a greenhouse at a temperature of approximately 20° C. and a relative humidity of approximately 80%.\nas §3"}, "log P (pH 2.3)": {"assay": "log P (pH 2.3)", "format": "physicochemical"}},
  "data": [
    {"smiles": "CCN(C)C=Nc1cc(C)c(Oc2nc(C3(Cl)CC3)ns2)cc1Cl", "note": "[Compound 3, N′-(2-chloro-4-{[3-(1-chlorocyclopropyl)-1,2,4-thiadiazol-5-yl]oxy}-5-methylphenyl)-N-ethyl-N-methylimidoformamide]", "values": [
      {"measurement": "pest or weed control at 500 ppm", "setting": "Sphaerotheca fuliginea", "value": "≥ 70", "unit": "%"},
      {"measurement": "pest or weed control at 500 ppm", "setting": "Puccinia triticina [1]", "value": "≥ 70", "unit": "%"},
      {"measurement": "pest or weed control at 500 ppm", "setting": "Puccinia triticina [2]", "value": "≥ 70", "unit": "%"},
      {"measurement": "logP", "setting": "log P (pH 2.3)", "value": 1.62}
    ]},
    {"smiles": "Cc1cc(/N=C\\N2CCCCC2)c(Cl)cc1Oc1nc(CCc2ccc(Cl)cc2)ns1", "note": "[Compound 10, 2-chloro-4-({3-[2-(4-chlorophenyl)ethyl]-1,2,4-thiadiazol-5-yl}oxy)-5-methyl-N-[(Z)-piperidin-1-ylmethylidene]aniline]", "values": [
      {"measurement": "logP", "setting": "log P (pH 2.3)", "value": 2.64}
    ]}
  ]
}
